Experimental data published in patent publication US20170216240A1, “METHODS FOR MODULATING IKS CHANNEL ACTIVITY” (UNIVERSITY OF MIAMI, priority 2014, published 2017).
Several values for one entry are separate records, joined by “and”; a condition that tells them apart may be missing. Identical values can stand only once. Like-named read-outs stand apart in the source and are kept apart here. One block for each compound: values may come before it.

Experiments:
[1] = biological target: Kv7.1 (Homo sapiens, UniProt P51787); experiment: G(V) shift of Kv7.1 expressed in Xenopus laevis oocytes, two-electrode voltage-clamp; type: cell-based
Excerpt: (§1) cDNAs encoding human Kv7.1 (GEnBAnk Acc. No. NM_000218) and KCNE1 (NM_000219) were subcloned into the expression vectors pGEM or pXOOM, containing the 5′- and 3′-untranslated regions for Xenopus laevis β-globin as well as a poly-A segment (Jespersen et al., Biotechniques 32, 536-538, 540 (2002)). The truncated KCNE1 construct KCNE1ΔC was constructed by introducing a Stop codon at position 67 using Quikchange site-directed mutagenesis kit (Qiagen). The construct was fully sequenced to ensure proper mutation and absence of unwanted mutations (sequencing by Genewiz). The concatemers E1-Kv7.1-Kv7.1 and E1-Kv7.1 were provided by Dr. R. S. Kass at Columbia University, and can be prepared as described in Chan et al. Journal of General Physiology 132(2), 135-144, (2012)). The E1-Kv7.1 construct was made by linking the C-terminus of KCNE1 to the N-terminus of KCNQ1. The E1-Kv7.1-Kv7.1 construct was made by digesting the E1-Kv7.1 and a Kv7.1-Kv7.1 dimer with Xho1 and inserting the 2-kb fragment from the Kv7.1-Kv7.1 dimer digest into the cut KCNE1-Kv7.1 construct. The DNA encoding E1-Kv7.1-Kv7.1 and E1-Kv7.1 were in the pGEM vector and contained mutations to make the constructs suitable for voltage-clamp fluorometry recordings (Wang et al., J Biol Chem 273, 34069-34074 (1998)). The original KCNE1 and Kv7.1 sequences were therefore removed, one at a time, from the pGEM vector using different restriction enzymes (New England Biolabs). Sequences were separated using gel electrophoresis and harvested using Qiagen gel extraction kit. Corresponding wild type sequences were ligated into the construct using T4 Ligase (New England Biolabs). To ensure correct sequence the constructs were sequenced (Genewiz) and tested with different restriction enzymes in combination with gel electrophoresis to measure length and conformation of the gene. cRNA for injection of all constructs was prepared from linearized DNA using the T7 mMessage mMachine transcription kit (Ambion) according to the manufactures instructions. RNA quality was checked by gel electrophoresis, and RNA concentrations were quantified by UV spectroscopy.
(§2) Xenopus laevis oocytes were isolated and maintained (Bentzen, B. H. et al. Neuropharmacology 51, 1068-1077 (2006)). Approximately 50 nl cRNA (50 ng Kv7.1, KCNE1-Kv7.1-Kv7.1 or KCNE1-Kv7.1 alternatively 25 ng Kv7.1 together with 8 ng KCNE1 or KCNE1ΔC) was injected into each oocyte using a Nanojet microinjector (Drummond). Electrophysiological experiments were made 2-5 days after injection. Currents were measured at room temperature with the two-electrode voltage-clamp technique (CA-1B Dagan amplifier). Currents were sampled at 1-3.3 kHz, filtered at 500 Hz, and not leakage corrected. […] A control solution containing (in mM): 88 NaCl, 1 KCl, 15 HEPES, 0.4 CaCl2, and 0.8 MgCl2 was used. NaOH was added to adjust pH to 7.4, yielding a final sodium concentration of about 100 mM. The holding voltage was generally set to −80 mV. Activation curves were generally elicited by stepping to test voltages between −110 and +60 mV (2-4 s durations and 10 mV increments) followed by a tail voltage of −30 mV. For recordings of Kv7.1 at pH 9 and pH 10, the holding voltage was set to more negative voltages because the largest DHA-induced shifts induced channel opening already at −80 mV. […] Therefore, in arachidonyl amine experiments a brief hyperpolarizing pulse of 50 ms to −120 mV was introduced between the test voltage and the tail voltage to relief the channels from inactivation.
(§3) Test compounds were dissolved in 99.5% ethanol to a concentration of 100 mM and stored at −20° C. (Börjesson et al., Biophys J 95, 2242-2253 (2008); Börjesson et al., Biophys J 98, 396-403 (2010)). Shortly before experiments, test compounds were diluted in control solution to the desired test concentration. Pure control solution was added to the bath using a gravity-driven perfusion system. […]

[2] = biological target: T1, Kv7.1/KCNE1 (Homo sapiens, UniProt P51787); experiment: G(V) shift of Kv7.1 co-expressed with KCNE1 in Xenopus oocytes, two-electrode voltage-clamp; type: cell-based; conditions: for ΔV1/2 ± SEM (G(V) shift): Kv7.1/E1; for pKa: human, Xenopus oocytes co-expressing human Kv7.1 and KCNE1, read-out: apparent pKa (pH of c0.5)
T1 construct: expressed in transfected cells; host or cells: Xenopus laevis oocytes (cRNA co-injection)
Excerpt: as §1, §2, §3

[3] = biological target: KCNE1-Kv7.1 (Homo sapiens, UniProt P15382+P51787); experiment: G(V) shift of KCNE1-Kv7.1 concatemer (4:4 stoichiometry) in Xenopus oocytes; type: cell-based; conditions: 70 μM; for ΔV1/2 ± SEM (G(V) shift): E1-Kv7.1
Excerpt: (§4) As used herein, the terms “KCNE1-Kv7.1” and “KCNE1-Kv7.1-Kv7.1” refer to concatemers of Kv7.1 and KCNE1 in 4:4 and 4:2 stoichiometry, respectively.
as §1, with “The original KCNE1 and Kv7.1 sequences were therefore removed, one at a time, from the pGEM vector using different restriction enzymes (New England Biolabs). Sequences were separated using gel electrophoresis and harvested using Qiagen gel extraction kit. Corresponding wild type sequences were ligated into the construct using T4 Ligase (New England Biolabs). To ensure correct sequence the constructs were sequenced (Genewiz) and tested with different restriction enzymes in combination with gel electrophoresis to measure length and conformation of the gene. cRNA for injection of all constructs was prepared from linearized DNA using the T7 mMessage mMachine transcription kit (Ambion) according to the manufactures instructions.” left out
(§5) Xenopus laevis oocytes were isolated and maintained (Bentzen, B. H. et al. Neuropharmacology 51, 1068-1077 (2006)). […] Currents were measured at room temperature with the two-electrode voltage-clamp technique (CA-1B Dagan amplifier). […]
(§6) Xenopus laevis oocyte data were acquired using either Pulse software (HEKA) or Clampex 10.2 (Axon Instruments), and analyzed with Clampfit 10 (Axon Instruments) and GraphPad Prism 4 (GraphPad Software). […]

[4] = biological target: KCNE1-Kv7.1-Kv7.1 (Homo sapiens, UniProt P15382+P51787); experiment: G(V) shift of KCNE1-Kv7.1-Kv7.1 concatemer (4:2 stoichiometry) in Xenopus oocytes; type: cell-based; conditions: 70 μM; for ΔV1/2 ± SEM (G(V) shift): E1-Kv7.1-Kv7.1
Excerpt: as §4
as §1, with “The original KCNE1 and Kv7.1 sequences were therefore removed, one at a time, from the pGEM vector using different restriction enzymes (New England Biolabs). Sequences were separated using gel electrophoresis and harvested using Qiagen gel extraction kit. Corresponding wild type sequences were ligated into the construct using T4 Ligase (New England Biolabs). To ensure correct sequence the constructs were sequenced (Genewiz) and tested with different restriction enzymes in combination with gel electrophoresis to measure length and conformation of the gene. cRNA for injection of all constructs was prepared from linearized DNA using the T7 mMessage mMachine transcription kit (Ambion) according to the manufactures instructions.” left out
as §5, §6

[5] = system: intact guinea pig hearts; experiment: Restoration of QT interval in intact hearts with E4031-induced Long QT; conditions: E4031
Excerpt: Long QT syndrome was induced in intact guinea pig hearts by administration of the drug E4031, a HERG channel blocker.

[6] = in vitro; conditions: human, Caco-2
[7] = system: Caco-2 cells

SMILES: CCCCC/C=C\C/C=C\C/C=C\C/C=C\CCCCN [AA+, arachidonyl amine]
Kv7.1 channel inactivation ([1]; Kv7.1): induced Kv7.1 channel inactivation
ΔV1/2 ± SEM (G(V) shift) ([1]; Kv7.1, 70 μM, pH 7.4): +9.7 ± 2.1 mV
ΔV1/2 ± SEM (G(V) shift) ([1]; Kv7.1, 70 μM, pH 7.4, listed as Arachidonyl amine): +9.7±2.1 mV
ΔV1/2 ± SEM (G(V) shift) ([1]; Kv7.1, 70 μM, pH 7.4, listed as arachidonyl amine): +9.7±2.1 mV
ΔV1/2 ± SEM (G(V) shift) ([2]; 70 μM, pH 7.4): +22.6 ± 1.9 mV
ΔV1/2 ± SEM (G(V) shift) ([2]; 70 μM, pH 7.4, listed as arachidonyl amine): +22.6±1.9 mV
G(V) shift of a representative cell (control curve shifted) ([2]; Kv7.1/KCNE1, 70 μM, pH 7.4): +28 mV
G(V) shift ([2]; Kv7.1/KCNE1, pH 7): about +25 mV

SMILES: CC/C=C\C/C=C\C/C=C\C/C=C\C/C=C\C/C=C\CCC(=O)O [DHA, 4,7,10,13,16,19-all-cis-docosahexaenoic acid]
maximal conductance ([1]; Kv7.1): without affecting maximal conductance
G(V) shift ([1]; Kv7.1, 7 μM): −3.0±0.5 mV
G(V) shift predicted from the concentration-response curve ([1]; Kv7.1, 35 μM DHA alone): −6.5 mV
c0.5 (pH-dependence of the G(V) shift) ([1]; Kv7.1, 70 μM): 1.8*10^−8
ΔVmax (pH-dependence of the G(V) shift) ([1]; Kv7.1, 70 μM): −30.7 mV
G(V) shift ([1]; Kv7.1, 70 μM, pH 10): about −30 mV
G(V) shift ([1]; Kv7.1, external pH 6.5): abolishes the DHA effect
estimated maximum shift ΔVmax (concentration dependence) ([1]; Kv7.1, pH 7.4): −15.8±2.3 mV and −15.8 mV
EC50 ([1]; Kv7.1, pH 7.4, read-out: c0.5, concentration causing 50% of the maximum shift): 50 ± 20 µM
ΔVmax (concentration-response) ([1]; Kv7.1, pH 9.0): −27.7 mV
EC50 ([1]; Kv7.1, pH 9.0, read-out: C0.5 (concentration-response)): 10 µM
pKa ([1]; human, Xenopus laevis oocytes expressing human Kv7.1, Kv7.1, 70 μM, read-out: apparent pKa as reported by the shift of the G(V) relation): ~7.7
c0.5 (pH-dependence of the G(V) shift) ([2]; Kv7.1/KCNE1, 70 μM): 3.3*10^−9
ΔVmax (pH-dependence of the G(V) shift) ([2]; Kv7.1/KCNE1, 70 μM): −26.6 mV
G(V) shift of a representative cell (control curve shifted) ([2]; Kv7.1/KCNE1, 70 μM, pH 9): −35 mV
pKa ([2]; Kv7.1/KCNE1, 70 μM): 8.5
G(V) shift of a representative cell (control curve shifted) ([3]; KCNE1-Kv7.1): +5.5 mV
G(V) shift of a representative cell (control curve shifted) ([4]; KCNE1-Kv7.1-Kv7.1): +7 mV

SMILES: CC/C=C\C/C=C\C/C=C\C/C=C\C/C=C\C/C=C\CCC(=O)NCC(=O)O [DHA-Gly, docosahexaenoyl glycine]
apparent pKa lower than that of DHA ([2]; Kv7.1/KCNE1): about 1.5 pH unit
pKa ([2]; Kv7.1/KCNE1, 70 μM): 6.9
concentration able to restore the QT intervals [5]: 10 µM
efflux ratio [6]: 3.6

SMILES: CC/C=C\C/C=C\C/C=C\C/C=C\C/C=C\C/C=C\CCC(=O)OC [DHA-me, 4,7,10,13,16,19-all-cis-docosahexaenoic acid methyl ester]
ΔV1/2 ± SEM (G(V) shift) ([1]; Kv7.1, 70 μM, pH 7.4): +2.8 ± 2.5 mV
ΔV1/2 ± SEM (G(V) shift) ([1]; Kv7.1, 70 μM, pH 7.4, listed as DHA methyl ester): no effect
ΔV1/2 ± SEM (G(V) shift) ([1]; Kv7.1, 70 μM, pH 7.4, listed as DHA-Me): +2.8±2.5 mV
ΔV1/2 ± SEM (G(V) shift) ([3]; pH 7.4): +5.0 ± 1.3 mV
ΔV1/2 ± SEM (G(V) shift) ([3]; pH 9.0): +3.6 ± 2.6 mV
ΔV1/2 ± SEM (G(V) shift) ([4]; pH 7.4): +5.7 ± 0.9 mV
ΔV1/2 ± SEM (G(V) shift) ([4]; pH 9.0): +8.2 ± 2.7 mV

SMILES: CCCCCCCC/C=C\CCCCCCCC(=O)O [OA, oleic acid]
ΔV1/2 ± SEM (G(V) shift) ([1]; Kv7.1, 70 μM, pH 7.4): −1.0±0.5 mV
ΔV1/2 ± SEM (G(V) shift) ([1]; Kv7.1, 70 μM, pH 7.4, listed as Oleic acid): no effect

Next, values leading:

Kv7.1 affinity ([1]; compared among NAA, Lin-Gly, Ste-Gly, DHA-Gly, TTA, HTA): lowest affinity
SMILES: CCCCC/C=C\C/C=C\CCCCCCCC(=O)NCC(=O)O [Lin-Gly, linoleoyl-glycine]

permeability coefficient (Papp) [7]: 20×10^−6 cms^−1
SMILES: CC(C)NCC(O)COc1cccc2ccccc12 (centres unmarked) [propranolol, reference compound]
